Data from US20060216333A1, “Methods related to the treatment of mucosal associated conditions” (priority 2003, published 2006).

Columns and labels:
Type in all cases: in vivo, rat
MCP-1 = test: Serum and vaginal tissue MCP-1 after intravaginal dosing of rats (ELISA); conditions: for MCP-1 Tissue: vaginal tissue, per 200 mg
Method: (§1) In the examples below the serum and intravaginal cytokine data were obtained using the following general test method.
(§2) Rats were acclimated to collars (Lomir Biomedical, Malone, N.Y.) around the neck on two consecutive days prior to actual dosing. Rats were collared to prevent removal of the device and ingestion of the drug. Animals were then dosed intravaginally with a removable device or with […] of cream. Single dosed rats received one intravaginal dose with samples collected at various times following dosing. Blood was collected by cardiac puncture. Blood was allowed to clot briefly at room temperature and serum was separated from the clot via centrifugation. The serum was stored at −20° C. until it was analyzed for cytokine concentrations.
(§3) Following blood collection, the rats were euthanized and their vaginal tract, including the cervix, was then removed and the tissue was weighed, placed in a sealed 1.8 mL cryovial and flash frozen in liquid nitrogen. The frozen vaginal tissue sample was then suspended in 1.0 mL of RPMI medium (Celox, St. Paul, Minn.) containing 10% fetal bovine serum (Atlas, Fort Collins, Colo.), 2 mM L-glutamine, penicillin/streptomycin and 2-mercaptoethanol (RPMI complete) combined with a protease inhibitor cocktail set III (Calbiochem, San Diego, Calif.). The tissue was homogenized using a Tissue Tearor (Biospec Products, Bartlesville, Okla.) for approximately one minute. The tissue suspension was then centrifuged at 2000 rpm for 10 minutes under refrigeration to pellet the debris, and the supernatant collected and stored at −20° C. until analyzed for cytokine concentrations.
(§4) ELISA kits for rat TNF were purchased from BD PharMingen (San Diego, Calif.) and the rat MCP-1 ELISA kits were purchased from BioSource Intl. (Camarillo, Calif.).
(§5) Both kits were performed according to manufacturer's specifications. Results for both TNF and MCP-1 are expressed in pg/mL and are normalized per 200 mg of tissue. […] “Post dosing” means after treatment initiation. For example, if a device was inserted a time 0 hours and removed at 2 hours and cytokines were assayed at 4 hours, then the cytokines were assayed at 4 hours post dosing.

TNF = test: Serum and vaginal tissue TNF after intravaginal dosing of rats (ELISA); conditions: for TNF Tissue: vaginal tissue, per 200 mg
Method: as §1, §2, §3, §4, §5

rats = test: Histologic examination of uterus, cervix, vagina, vulva and perineal skin, Example 11; conditions: 1% device removed after 2 hours
Method: Cotton devices were prepared as described in Example 1. The devices were saturated with either a solution containing 1% by weight of IRM 2 in 50/50 w/w isostearic acid/isopropyl myristate or with 50/50 w/w isostearic acid/isopropyl myristate (vehicle). Three groups of rats were dosed intravaginally 2 times a week for 3 weeks (Tuesday, Friday, Monday, Thursday, Monday, Thursday) with 1% IRM 2 device, vehicle device or with 1% IRM 2 cream. The devices were removed after 2 hours. The cream was left in place. Cytokines were assayed 4 hours post dosing of the final dose. Three more groups of rats were dosed intravaginally with 1% IRM 2 device, vehicle device or with 1% ERM 2 cream. The devices were removed after 2 hours. The cream was left in place. Cytokines were assayed 4 hours post dosing. […] The results are shown in the table below where each value is the mean value for 3 rats.
Groups of 3 rats were treated as described in Example 8 and necropsied 22 hours after the devices were removed. Uterus, cervix, vagina, vulva and perineal skin were collected, fixed and processed routinely for histologic examination.

[1] = 4 hours post dosing, 1% in 50/50 ISA/IPM, cotton pellet device removed after 2 hours, Example 6
[2] = 4 hours post dosing, device 1.0% in 50/50 ISA/IPM, removed after 15 min, Example 4
[3] = 4 hours post dosing, device 1.0% in 50/50 ISA/IPM, removed after 30 min, Example 4
[4] = 4 hours post dosing, device 1.0% in 50/50 ISA/IPM, removed after 60 min, Example 4
[5] = 4 hours post dosing, device 1.0% in 50/50 ISA/IPM, removed after 120 min, Example 4
[6] = 4 hours post dosing, single dose, 1% in 50/50 ISA/IPM cotton device removed after 2 hours, Example 8
[7] = 4 hours post final dose, multiple dose, 2 times a week for 3 weeks, 1% in 50/50 ISA/IPM cotton device removed after 2 hours, Example 8
[8] = Multiple dose (2 times a week for 3 weeks)
[9] = 2 hr post dose, 5% in 50/50 ISA/IPM, cotton pellet device removed after 2 hours, Example 7
[10] = 4 hr post dose, 5% in 50/50 ISA/IPM, cotton pellet device removed after 2 hours, Example 7
[11] = 6 hr post dose, 5% in 50/50 ISA/IPM, cotton pellet device removed after 2 hours, Example 7

For `CCCCc1nc2c(N)nc3ccccc3c2n1CCS(=O)(=O)C(C)C` [IRM 6, 2-butyl-1-{2-[(1-methylethyl)sulfonyl]ethyl}-1H-imidazo[4,5-c]quinolin-4-amine], the “MCP-1 Serum” value (MCP-1; [1]) was 114 pg/mL, the “MCP-1 Tissue” value (MCP-1; [1]) was 1840 pg/mL and the “TNF Serum” value (TNF; [1]) was 1 pg/mL. For the same compound, the “TNF Tissue” value (TNF; [1]) was 491 pg/mL.
With `Cc1nc2c(N)nc3ccccc3c2n1CC(C)(C)O` [IRM 2, 4-amino-α,α,2-trimethyl-1H-imidazo[4,5-c]quinoline-1-ethanol] the “MCP-1 Serum” value (MCP-1; [1]) was 114 pg/mL, the “MCP-1 Serum” value (MCP-1; [2]) was 68 pg/mL and the “MCP-1 Serum” value (MCP-1; [3]) was 83 pg/mL. For the same compound, the “MCP-1 Serum” value (MCP-1; [4]) was 118 pg/mL, the “MCP-1 Serum” value (MCP-1; [5]) was 92 pg/mL and the “MCP-1 Serum” value (MCP-1; [6]) was 59 pg/mL. The “MCP-1 Serum” value (MCP-1; [7]) was 87 pg/mL, the “MCP-1 Tissue” value (MCP-1; [1]) was 1016 pg/mL and the “MCP-1 Tissue” value (MCP-1; [2]) was 433 pg/mL. The “MCP-1 Tissue” value (MCP-1; [3]) was 454 pg/mL, the “MCP-1 Tissue” value (MCP-1; [4]) was 889 pg/mL and the “MCP-1 Tissue” value (MCP-1; [5]) was 2462 pg/mL. The “MCP-1 Tissue” value (MCP-1; [6]) was 1390 pg/mL, the “MCP-1 Tissue” value (MCP-1; [7]) was 2353 pg/mL and the “TNF Serum” value (TNF; [1]) was 4 pg/mL. The “TNF Serum” value (TNF; [2]) was 0 pg/mL, the “TNF Serum” value (TNF; [3]) was 0 pg/mL and the “TNF Serum” value (TNF; [4]) was 0 pg/mL. The “TNF Serum” value (TNF; [5]) was 0 pg/mL, the “TNF Serum” value (TNF; [6]) was 0 pg/mL and the “TNF Serum” value (TNF; [7]) was 0 pg/mL. For the same compound, the “TNF Tissue” value (TNF; [1]) was 384 pg/mL, the “TNF Tissue” value (TNF; [2]) was 493 pg/mL and the “TNF Tissue” value (TNF; [3]) was 390 pg/mL. For the same compound, the “TNF Tissue” value (TNF; [4]) was 537 pg/mL, the “TNF Tissue” value (TNF; [5]) was 716 pg/mL and the “TNF Tissue” value (TNF; [6]) was 888 pg/mL. The “TNF Tissue” value (TNF; [7]) was 1075 pg/mL, the “Lesion incidence: Cervix, Cavitation (epithelium)” value (rats; [8]) was 0/3 and the “Lesion incidence: Cervix, Inflammation” value (rats; [8]) was 1/3. For the same compound, the “Lesion incidence: Perineal skin, Exudate on surface, epidermis” value (rats; [8]) was 0/3, the “Lesion incidence: Perineal skin, Inflammation, superficial dermis” value (rats; [8]) was 1/3 and the “Lesion incidence: Perineal skin, Spongiosis, epidermis” value (rats; [8]) was 1/3. The “Lesion incidence: Perineal skin, Subcorneal pustules, epidermis” value (rats; [8]) was 1/3, the “Lesion incidence: Vagina, Edema, lamina propria” value (rats; [8]) was 0/3 and the “Lesion incidence: Vagina, Inflammation, lamina propria” value (rats; [8]) was 3/3. For the same compound, the “Lesion incidence: Vulva, Edema, lamina propria” value (rats; [8]) was 1/3, the “Lesion incidence: Vulva, Erosion” value (rats; [8]) was 0/3 and the “Lesion incidence: Vulva, Inflammation, lamina propria” value (rats; [8]) was 3/3. For the same compound, the “Lesion incidence: Vulva, Intraepithelial pustules” value (rats; [8]) was 0/3, the “Lesion incidence: Vulva, Necrosis, epithelium” value (rats; [8]) was 1/3 and the “Lesion incidence: Vulva, Spongiosis, epithelium” value (rats; [8]) was 1/3. The “Lesion incidence: Vulva, Ulceration” value (rats; [8]) was 0/3, the “Lesion incidence: Cervix, Cavitation (epithelium)” value (rats; Single dose) was 0/3 and the “Lesion incidence: Cervix, Inflammation” value (rats; Single dose) was 0/3. For the same compound, the “Lesion incidence: Perineal skin, Exudate on surface, epidermis” value (rats; Single dose) was 0/3, the “Lesion incidence: Perineal skin, Inflammation, superficial dermis” value (rats; Single dose) was 1/3 and the “Lesion incidence: Perineal skin, Spongiosis, epidermis” value (rats; Single dose) was 0/3. The “Lesion incidence: Perineal skin, Subcorneal pustules, epidermis” value (rats; Single dose) was 0/3, the “Lesion incidence: Vagina, Edema, lamina propria” value (rats; Single dose) was 0/3 and the “Lesion incidence: Vagina, Inflammation, lamina propria” value (rats; Single dose) was 3/3. The “Lesion incidence: Vulva, Edema, lamina propria” value (rats; Single dose) was 0/3, the “Lesion incidence: Vulva, Erosion” value (rats; Single dose) was 0/3 and the “Lesion incidence: Vulva, Inflammation, lamina propria” value (rats; Single dose) was 3/3. For the same compound, the “Lesion incidence: Vulva, Intraepithelial pustules” value (rats; Single dose) was 1/3, the “Lesion incidence: Vulva, Necrosis, epithelium” value (rats; Single dose) was 1/3 and the “Lesion incidence: Vulva, Spongiosis, epithelium” value (rats; Single dose) was 0/3. The “Lesion incidence: Vulva, Ulceration” value (rats; Single dose) was 0/3.
`CCOCc1nc2c(N)nc3ccccc3c2n1CCNC(=O)NC(C)C` [IRM 7, N-{2-[4-amino-2-(ethoxymethyl)-1H-imidazo[4,5-c]quinolin-1-yl]ethyl}-N′-isopropylurea] was tested, and the “MCP-1 Serum” value (MCP-1; [9]) was 92 pg/mL, the “MCP-1 Serum” value (MCP-1; [1]) was 93 pg/mL and the “MCP-1 Serum” value (MCP-1; [10]) was 112 pg/mL. The “MCP-1 Serum” value (MCP-1; [11]) was 140 pg/mL, the “MCP-1 Tissue” value (MCP-1; [9]) was 498 pg/mL and the “MCP-1 Tissue” value (MCP-1; [1]) was 642 pg/mL. The “MCP-1 Tissue” value (MCP-1; [10]) was 851 pg/mL, the “MCP-1 Tissue” value (MCP-1; [11]) was 670 pg/mL and the “TNF Serum” value (TNF; [9]) was 1 pg/mL. The “TNF Serum” value (TNF; [1]) was 0 pg/mL, the “TNF Serum” value (TNF; [10]) was 0 pg/mL and the “TNF Serum” value (TNF; [11]) was 2 pg/mL. For the same compound, the “TNF Tissue” value (TNF; [9]) was 512 pg/mL, the “TNF Tissue” value (TNF; [1]) was 219 pg/mL and the “TNF Tissue” value (TNF; [10]) was 460 pg/mL. The “TNF Tissue” value (TNF; [11]) was 267 pg/mL.
With `CCCCc1nc2c(N)nc3ccccc3c2n1CCCS(C)(=O)=O` [IRM 10, 2-butyl-1-[3-(methylsulfonyl)propyl]-1H-imidazo[4,5-c]quinoline-4-amine] the “MCP-1 Serum” value (MCP-1; [9]) was 111 pg/mL, the “MCP-1 Serum” value (MCP-1; [10]) was 160 pg/mL and the “MCP-1 Serum” value (MCP-1; [11]) was 155 pg/mL. For the same compound, the “MCP-1 Tissue” value (MCP-1; [9]) was 739 pg/mL, the “MCP-1 Tissue” value (MCP-1; [10]) was 1440 pg/mL and the “MCP-1 Tissue” value (MCP-1; [11]) was 975 pg/mL. For the same compound, the “TNF Serum” value (TNF; [9]) was 16 pg/mL, the “TNF Serum” value (TNF; [10]) was 25 pg/mL and the “TNF Serum” value (TNF; [11]) was 10 pg/mL. The “TNF Tissue” value (TNF; [9]) was 1110 pg/mL, the “TNF Tissue” value (TNF; [10]) was 887 pg/mL and the “TNF Tissue” value (TNF; [11]) was 519 pg/mL.
With `CCOCc1nc2c(N)nc3ccccc3c2n1CCOCCNC(=O)Nc1ccccc1` [IRM 8, N-(2-{2-[4-amino-2-(ethoxymethyl)-1H-imidazo[4,5-c]quinolin-1-yl]ethoxy}ethyl)-N′-phenylurea] the “MCP-1 Serum” value (MCP-1; [1]) was 82 pg/mL, the “MCP-1 Tissue” value (MCP-1; [1]) was 331 pg/mL and the “TNF Serum” value (TNF; [1]) was 0 pg/mL. For the same compound, the “TNF Tissue” value (TNF; [1]) was 294 pg/mL.
In the case of `COCCc1nc2c(N)nc3ccccc3c2n1CCCCNS(C)(=O)=O` [IRM 4, N-{4-[4-amino-2-(2-methoxyethyl)-1H-imidazo[4,5-c]quinolin-1-yl]butyl}methanesulfonamide], the “MCP-1 Serum” value (MCP-1; [1]) is reported as 105 pg/mL, the “MCP-1 Tissue” value (MCP-1; [1]) is reported as 713 pg/mL and the “TNF Serum” value (TNF; [1]) is reported as 0 pg/mL. For the same compound, the “TNF Tissue” value (TNF; [1]) was 109 pg/mL.
With `Nc1nc2ccccc2c2c1ncn2CCOCc1ccncc1` [IRM 9, 1-[2-(pyridin-4-ylmethoxy)ethyl]-1H-imidazo[4,5-c]quinolin-4-amine] the “MCP-1 Serum” value (MCP-1; [9]) was 85 pg/mL, the “MCP-1 Serum” value (MCP-1; [10]) was 131 pg/mL and the “MCP-1 Serum” value (MCP-1; [11]) was 180 pg/mL. For the same compound, the “MCP-1 Tissue” value (MCP-1; [9]) was 328 pg/mL, the “MCP-1 Tissue” value (MCP-1; [10]) was 1556 pg/mL and the “MCP-1 Tissue” value (MCP-1; [11]) was 850 pg/mL. The “TNF Serum” value (TNF; [9]) was 30 pg/mL, the “TNF Serum” value (TNF; [10]) was 4 pg/mL and the “TNF Serum” value (TNF; [11]) was 8 pg/mL. The “TNF Tissue” value (TNF; [9]) was 597 pg/mL, the “TNF Tissue” value (TNF; [10]) was 697 pg/mL and the “TNF Tissue” value (TNF; [11]) was 248 pg/mL.
With `CCCCNC(=O)NCCCn1c(CCCC)nc2c(N)nc3ccccc3c21` [IRM 5] the “MCP-1 Serum” value (MCP-1; [1]) was 108 pg/mL, the “MCP-1 Tissue” value (MCP-1; [1]) was 958 pg/mL and the “TNF Serum” value (TNF; [1]) was 1 pg/mL. For the same compound, the “TNF Tissue” value (TNF; [1]) was 358 pg/mL.
